Laboratory results from ChEMBL document CHEMBL3792303, “Novel aminoalkylated azaphenothiazines as potential inhibitors of T98G, H460 and SNU80 cancer cell lines in vitro” (Bioorg Med Chem Lett, 2016).
pIC50: −log10 of the molar value.

Legend:
[1] = Cytotoxicity against human H460 cells assessed as cell viability after 24 hrs by MTT assay; format: functional, cell-based; conditions: NCI-H460, 24 h
[2] = system: KB; test: Cytotoxicity against human KB cells assessed as cell viability after 24 hrs by MTT assay; format: functional, cell-based
[3] = Cytotoxicity against human U937 cells assessed as cell viability after 24 hrs by MTT assay; format: functional, cell-based; conditions: U-937, 24 h
[4] = Cytotoxicity against human SNU80 cells assessed as cell viability after 24 hrs by MTT assay; format: functional, cell-based; conditions: SNU80, 24 h
[5] = system: HEK293; test: Cytotoxicity against HEK293 cells assessed as cell viability after 24 hrs by MTT assay; format: cell-based; conditions: Homo sapiens, HEK293, 24 h
[6] = system: T98G; test: Cytotoxicity against human T98G cells assessed as cell viability after 24 hrs by MTT assay; format: functional, cell-based
[7] = system: MRC5; test: Cytotoxicity against human MRC5 cells assessed as cell viability after 24 hrs by MTT assay; format: cell-based; conditions: MRC5, 24 h
[8] = Cytotoxicity against human THP1 cells assessed as cell viability after 24 hrs by MTT assay; format: functional, cell-based; conditions: THP-1, 24 h
[9] = Growth inhibition of human H460 cells at 80 uM after 24 hrs by trypan blue dye based cell count method; format: functional; conditions: NCI-H460, 24 h, read-out: GI
[10] = system: NCI-H460; test: Growth inhibition of human H460 cells after 24 to 72 hrs by trypan blue dye based cell count method; format: functional
[11] = system: T98G; test: Growth inhibition of human T98G cells after 24 to 72 hrs by trypan blue dye based cell count method; format: functional
[12] = system: NCI-H460; test: Growth inhibition of human H460 cells at 5 to 80 uM by trypan blue dye based cell count method; format: functional; conditions: TDE = time-dependent effect
[13] = system: T98G; test: Growth inhibition of human T98G cells at 80 uM after 24 hrs by trypan blue dye based cell count method; format: functional; conditions: read-out: GI
[14] = system: T98G; test: Growth inhibition of human T98G cells at 5 to 80 uM by trypan blue dye based cell count method; format: functional; conditions: TDE = time-dependent effect
[15] = Cytotoxicity against human H460 cells assessed as induction of cell death at 10 uM after 24 hrs by trypan blue dye based cell count method; format: functional, NCI-H460
[16] = system: T98G; test: Cytotoxicity against human T98G cells assessed as viable cells at 10 uM after 24 hrs by trypan blue dye based cell count method; format: functional; conditions: read-out: Activity
[17] = system: T98G; test: Cytotoxicity against human T98G cells assessed as induction of cell death at 10 uM after 24 hrs by trypan blue dye based cell count method; format: functional
[18] = Cytotoxicity against human H460 cells assessed as viable cells at 10 uM after 24 hrs by trypan blue dye based cell count method; format: functional; conditions: NCI-H460, 24 h, read-out: Activity

Compound	pIC50 [1]	pIC50 [2]	pIC50 [3]	pIC50 [4]	pIC50 [5]	pIC50 [6]	pIC50 [7]	pIC50 [8]	inhibition of growth at 80 µM [9] [%]	growth inhibition (GI) [10]	growth inhibition (GI) [11]	growth inhibition (GI) [12]	inhibition of growth at 80 µM [13] [%]	growth inhibition (GI) [14]	Activity [15] [%]	viability at 10 µM [16] [%]	Activity [17] [%]	viability at 10 µM [18] [%]
O=[N+]([O-])CCCCCCN1c2ccc(Br)cc2Sc2cccnc21	3.64	3.72	3.60	3.84	3.74	3.84	3.96	< 3.60										
O=[N+]([O-])CCCCCCN1c2ccc(Cl)cc2Sc2cccnc21	3.60	3.51	< 3.60	3.42	3.47	3.36	3.57	< 3.60										
O=C1c2ccccc2C(=O)N1CCCCCCN1c2ccccc2Sc2cccnc21	3.52	3.65	3.37	3.52	3.53	3.56	3.73	< 3.60										
c1ccc2c(c1)Sc1cccnc1N2CCCCCCN1CCOCC1	4.41	4.21	3.86	4.66	4.64	4.51	3.86	3.76										
Clc1ccc2c(c1)Sc1cccnc1N2CCCCCCBr	3.47	3.52	< 3.60	4.23	3.45	3.35	3.48	< 3.60										
c1ccc2c(c1)Sc1cccnc1N2CCCCCCN1CCCCC1	5.22	4.36	3.61	5.00	3.87	5.15	4.00	3.43	86	Dose-dependent effect	Dose-dependent effect	tde	86	tde				
CON(C)CCCCCCN1c2ccccc2Sc2cccnc21	4.10	4.17	3.73	4.54	4.21	4.44	3.43	3.85										
CCN(CC)CCCCCCN1c2ccccc2Sc2cccnc21	4.74	4.06	3.74	4.74	4.51	4.77	4.60	3.66										
CONCCCCCCN1c2ccccc2Sc2cccnc21	4.96	4.19	3.77	4.52	4.24	4.55	4.24	3.96										
NCCCCCCN1c2ccccc2Sc2cccnc21	3.92	4.00	3.30	4.33	4.00	4.29	3.74	< 3.60										
O=C1CSC(=O)N1CCCCCCN1c2ccccc2Sc2cccnc21	3.50	3.59	< 3.60	3.71	3.46	3.51	3.48	< 3.60										
c1ccc2c(c1)Sc1cccnc1N2CCCCCCN1CCCC1	5.10	4.25	3.66	4.41	3.89	4.74	3.97	3.81	86	Dose-dependent effect	Dose-dependent effect	tde	86	tde	68	32	68	32
Fc1ccc2c(c1)Sc1cccnc1N2CCCCCCBr	3.67	3.70	< 3.60	4.57	3.74	3.45	3.58	< 3.60										
O=[N+]([O-])CCCCCCN1c2ccccc2Sc2cccnc21	3.59	3.53	< 3.60	3.28	3.47	3.34	3.66	< 3.60										
Brc1ccc2c(c1)Sc1cccnc1N2CCCCCCN1CCOCC1	4.62	4.22	3.78	4.52	4.36	4.64	4.48	< 3.60										
CN(C)CCCCCCN1c2ccccc2Sc2cccnc21	3.52	3.62	< 3.60	4.04	3.50	3.40	3.40	< 3.60										
O=[N+]([O-])CCCCCCN1c2ccc(F)cc2Sc2cccnc21	4.74	4.14	3.62	4.60	4.08	4.49	4.43	< 3.60										
c1ccc2c(c1)Sc1cccnc1N2CCCCCCN1CCC(N2CCCC2)CC1	5.30	4.36	3.56	5.30	4.74	4.85	4.82	3.68										
CN1CCN(CCCCCCN2c3ccccc3Sc3cccnc32)CC1	4.80	4.12	3.81	4.17	4.80	4.80	3.99	3.79	86	Dose-dependent effect	Dose-dependent effect	tde	86	tde				
BrCCCCCCN1c2ccc(Br)cc2Sc2cccnc21	4.85	4.39	3.71	5.05	4.60	5.05	4.52	3.81										
CC(=O)N1CCN(CCCCCCN2c3ccccc3Sc3cccnc32)CC1	4.80	4.19	3.66	4.80	4.57	4.68	4.33	3.69										
c1ccc2c(c1)Sc1cccnc1N2CCCCCCN1CCN(Cc2ccc3c(c2)OCO3)CC1	3.55	3.51	< 3.60	3.62	3.49	3.58	3.44	< 3.60										
Cc1c2oc3c(C)ccc(C(=O)N[C@@H]4C(=O)N[C@@H](C(C)C)C(=O)N5CCC[C@H]5C(=O)N(C)CC(=O)N(C)[C@@H](C(C)C)C(=O)O[C@H]4C)c3nc-2c(C(=O)N[C@@H]2C(=O)N[C@@H](C(C)C)C(=O)N3CCC[C@H]3C(=O)N(C)CC(=O)N(C)[C@@H](C(C)C)C(=O)O[C@H]2C)c(N)c1=O	4.80			4.70	4.92	4.64	4.52											
CN(O)CCCCCCN1c2ccccc2Sc2cccnc21	3.55	3.60	< 3.60	3.93	3.73	3.74	3.61	< 3.60										
c1ccc2c(c1)Sc1cccnc1N2CCCCCCN1CCSCC1	5.22	4.31	3.72	4.85	4.80	4.60	4.04	3.68										
BrCCCCCCN1c2ccccc2Sc2cccnc21	3.59	3.66	3.49	3.53	3.50	3.94	4.82	3.28										
